Test results: patent publication EP0096457B1, “Indium complexes of substituted 8-hydroxy-quinolines, pharmaceutical compositions containing them and their use as antibacterial agents” (NATIONAL RESEARCH DEVELOPMENT CORPORATION, priority 1982, dated 1983)
Values after ≈ are worked out from the molar mass of the structure shown.

Assays:
[1] = test system: Escherichia coli (018; co1V^+); test: Minimal inhibitory concentration (MIC) in broth culture; format: cell-based; details: trypticase soy broth with sodium bicarbonate, approx. 10^4 bacteria per ml, 18 hours at 37°C, 5% CO2 in air, lowest concentration with no visible growth, read-out: MIC Values E. coli
Description: (§1) Experiments were carried out to find the minimal inhibitory concentrations (MIC) for solutions of various indium complexes against Staphylococcus aureus (human isolate), Escherichia coli (018; co1V^+) and Klebsiella pneumoniae and to compare these with the MIC values for the corresponding metal-free compounds. The complexes were prepared in solution as described in Example 1 except that in the case of the complex of 7-iodo-8-hydroxyquinoline 5-sulphonic acid, 5 molar equivalents of metal-free compound were reacted with the indium chloride trihydrate and the solution was prepared in water. The solutions of the metal-free compounds were prepared in the same solvent as used for the equivalent complex.
(§2) The culture medium used consisted of a 9:1 mixture of trypticase soy broth and 6% w/v aqueous sodium bicarbonate solution. The medium was bulk inoculated with approximately 10^4 test bacteria per ml and 5.0 ml aliquots were then dispensed into sterile 20 ml bottles to which 0.05 ml of the test solution had been added. The test solutions were obtained from the original solution of the indium complex or metal-free compound by dilution to give a suitable range of concentrations in µM. Control samples, to which either no test solution was added or to which the solvent of the test solution only was added, were also prepared.
(§3) For each compound tested the samples at the various concentrations were studied to determine the lowest concentration of the compound at which no growth could be seen. The MIC values thus obtained are shown in Table 1 where it will be seen that the values are in each case lower for the indium complex as compared with the metal-free compound.

[2] = test system: Klebsiella pneumoniae; test: as above; format: cell-based; details: trypticase soy broth with sodium bicarbonate, approx. 10^4 bacteria per ml, 18 hours at 37°C, 5% CO2 in air, lowest concentration with no visible growth, read-out: MIC Values K. pneumoniae
Description: as §1, §2, §3

[3] = test system: Staphylococcus aureus (human isolate); test: as above; format: cell-based; details: trypticase soy broth with sodium bicarbonate, approx. 10^4 bacteria per ml, 18 hours at 37°C, 5% CO2 in air, lowest concentration with no visible growth, read-out: MIC Values S. aureus
Description: as §1, §2, §3

[4] = test system: E. coli (108, co1V^+); format: in vivo; details: groups of 5 Parks mice infected i.p. with 8.0 x 10^6 E. coli, i.p. treatment 0.2 ml twice per day for 1 day (indium complex 4.6 mg/kg, metal-free compound 3.4 mg/kg per dose)
Description: (§4) The solutions for administration were prepared as follows: • (1) 2 equivalents of 5,7-dichloro-8-hydroxyquinoline were dissolved in a 15 mM solution of InCl3·3H2O in ethanol containing 1% v/v of glycerol. A 1.0 ml aliquot of this solution was dried in vacuo using a sterile universal container and the resultant residue was treated with 15 ml of sterile 0.15 M aqueous sodium chloride containing 1 % w/v of sodium bicarbonate and the solid dispersed by sonication. A 0.2 ml dose of the final preparation corresponds to a dose of 4.6 mg/kg in a 25 g mouse. • (2) 6.4 mg of 5,7-dichloro-8-hydroxyquinoline were moistened by the addition of 0.05 ml of dimethyl sulphoxide and to the moistened material was added 15 ml of sterile 0.15 M aqueous sodium chloride containing 1% w/v of sodium bicarbonate, the solid then being dispersed by sonication. A 0.2 ml dose of the final preparation corresponds to a dose of 3.4 mg/kg in a 25 g mouse.
Groups of 5 male or female Parks mice weighing from 23-25 g were infected by intraperitoneal injection of one of 8.0 x 10^6 E. coli, 3.5 x 10^5 K. pneumoniae and 7.0 x 10^8 S. aureus, the organisms in each case being suspended in 0.2 ml of 10% v/v trypticase soy broth in 0.15 M aqueous sodium chloride, three groups of mice being infected with each organism. […]

[5] = test system: S. aureus (human isolate); test: In vivo test in intraperitoneally infected mice (deaths); details: groups of 5 Parks mice infected i.p. with 7.0 x 10^8 S. aureus, i.p. treatment 0.2 ml twice per day for 2 days (indium complex 4.6 mg/kg, metal-free compound 3.4 mg/kg per dose)
Description: as §4
(§5) Groups of 5 male or female Parks mice weighing from 23-25 g were infected by intraperitoneal injection of one of 8.0 x 10^6 E. coli, 3.5 x 10^5 K. pneumoniae and 7.0 x 10^8 S. aureus, the organisms in each case being suspended in 0.2 ml of 10% v/v trypticase soy broth in 0.15 M aqueous sodium chloride, three groups of mice being infected with each organism. For each organism, one of the three groups of infected mice was treated by intraperitoneal injection with 0.2 ml of a suspension of the indium complex whilst a second group was similarly treated with 0.2 ml of a supsension of the metal-free compound. The treatment was given twice per day for 1 day in the case of E. coli infection, twice per day for 4 days in the case of K. pneumoniae infection, and twice per day for 2 days in the case of the S. aureus infection. The third group of mice in each case received no treatment.

[6] = test system: K. pneumoniae; test: as above; details: groups of 5 Parks mice infected i.p. with 3.5 x 10^5 K. pneumoniae, i.p. treatment 0.2 ml twice per day for 4 days (indium complex 4.6 mg/kg, metal-free compound 3.4 mg/kg per dose)
Description: as §4, §5

Row | MIC [1] [µM] | MIC [2] [µM] | MIC [3] [µM] | Structure (SMILES) | Deaths at 7 days [4] | Deaths % ([4]; at 7 days) [%] | Deaths at 7 days [5] | Deaths % ([5]; at 7 days) [%] | Deaths at 7 days [6] | Deaths % ([6]; at 7 days) [%]
1 | > 500 | > 500 | > 500 | O=S(=O)(O)c1cc(I)c(O)c2ncccc12 [7-Iodo-8-hydroxyquinoline 5-sulphonic acid] |  |  |  |  |  | 
2 | 38.5 (≈ 6.91 µg/mL) | 38.5 (≈ 6.91 µg/mL) | 18.8 (≈ 3.38 µg/mL) | Oc1ccc(Cl)c2cccnc12 [5-Chloro-8-hydroxyquinoline] |  |  |  |  |  | 

Row | Structure (SMILES) | MIC [1] [µM] | MIC [2] [µM] | MIC [3] [µM] | Deaths at 7 days [4] | Deaths % ([4]; at 7 days) [%] | Deaths at 7 days [5] | Deaths % ([5]; at 7 days) [%] | Deaths at 7 days [6] | Deaths % ([6]; at 7 days) [%]
3 | Oc1c(Cl)cc(Cl)c2cccnc12 [5,7-dichloro-8-hydroxyquinoline] | 100 (≈ 21.4 µg/mL) | 100 (≈ 21.4 µg/mL) | 6.3 (≈ 1.35 µg/mL) | 5 | 100 | 4 | 80 | 5 | 100
